From US7256204B2, “Amine compounds, their production and use” (Takeda Pharmaceutical Company Limited, priority 1997, dated 2007)
Counter-ions that a name gives are not always drawn.

system: Aβ1-40 production and/or secretion in human neuroblastoma IMR-32 cells; assay: Inhibition of amyloid-β protein production in IMR-32 cells, EIA for Aβ1-40; assay type: cell-based; details: test compound 10 μM, 24 hours incubation, effect to inhibit production and/or secretion as percentage relative to the control
Protocol: (§1) Compounds of the present invention were tested for effect of inhibiting amyloid-β protein production in human neuroblastoma IMR-32 cells. Herein referred to were references, Science, 264, 1336 (1994) and Biochemistry, 34, 10272 (1995), etc.
(§2) IMR-32 cells were cultivated in a flask (Falcon, 750 ml) containing 10% FCS/DMEM medium, in an atmosphere of 10% CO2/90% air, at 37° C. to be in confluence. The cultivated cells were seeded into a 48-well plate in a density of 2.5×10^5 cells/well, and incubated therein for 3 days under the same condition as above. Then, the culture medium was removed through suction.
(§3) A dimethylformamide (DMF) solution containing a test compound was dissolved in 0.5 ml of 0.5% BSA/DMEM, and added to the plate, and the cells were incubated for further 24 hours. As the control, the same volume of DMF but not containing the test compound was dissolved in 0.5 ml of 0.5% BSA/DMEM, and added to the plate. […]
(§4) The plate was washed three times with PBS, and 100 μl of an HRP-labeled secondary antibody (BA-27 antibody or BC-05 antibody labeled with HRP, horseradish peroxidase) as dissolved in a buffer for secondary reaction (20 mM phosphate buffer, pH 7.0; 400 mM NaCl; 2 mM EDTA; 1% BSA) was added thereto. […] Then, using a plate reader (MTP-32 Microplate Reader, by Corona Co.), the sample on the plate was subjected to calorimetric determination (at 450 nm). […]

With CN(C)CCC1CCc2cc(OCc3ccc(-c4ccccc4)cc3)ccc2C1.Cl (stereo not shown) [Example 12, 6-(4-Biphenylyl)methoxy-2-[2-(N,N-dimethylamino)ethyl]tetralin hydrochloride] the “Aβ1–40 (%)” value was 74%.

system: Aβ1-42 production and/or secretion in human neuroblastoma IMR-32 cells; assay: Inhibition of amyloid-β protein production in IMR-32 cells, EIA for Aβ1-42; assay type: cell-based; details: test compound 10 μM, 24 hours incubation, effect to inhibit production and/or secretion as percentage relative to the control
Protocol: as §1, §2, §3, §4

For CN(C)CCC1CCc2cc(OCc3ccc(-c4ccccc4)cc3)ccc2C1.Cl (stereo not shown) [Example 12, 6-(4-Biphenylyl)methoxy-2-[2-(N,N-dimethylamino)ethyl]tetralin hydrochloride], the “Aβ1–42 (%)” value was 75%.

system: mouse; assay: Experiment of acute toxicity, oral administration; assay type: in vivo; details: dose of more than 1000 mg/kg
Description: In addition, compounds (I) and (I′) have low toxicity. […] Moreover, compounds (I) and (I′) easily penetrate into the brain following the oral administration.

With CN(C)CCC1CCc2cc(OCc3ccc(-c4ccccc4)cc3)ccc2C1.Cl (stereo not shown) [Example 12, 6-(4-Biphenylyl)methoxy-2-[2-(N,N-dimethylamino)ethyl]tetralin hydrochloride] the “acute toxicity (death)” value was “no mouse was dead”.

system: not given; assay: not given; details: not given

First: CC(=O)N(Cc1ccc(-c2ccccc2)cc1)c1ccc2c(c1)CCC(CN(C)C)C2.Cl (stereo not shown)
Second: CN(C)CC1CCc2ccc(OCc3ccc(-c4ccccc4)cc3)cc2C1.Cl (stereo not shown)
The melting point of the first is lower: 179 to 182 °C for the first, 232 to 233 °C for the second.

Cc1ccc(-c2ccc(COc3ccc4c(c3)CCC(CN(C)C)C4)cc2)cc1.Cl (stereo not shown) and CN(C)CC1CCc2cc(OCc3ccc(-c4ccc(F)cc4)cc3)ccc2C1.Cl (stereo not shown) cannot be ordered by melting point: 226 to 228 °C for the first, 223 to 234 °C for the second.

Compared with CN(C)CC1CCc2cc(OCc3ccc4ccccc4c3)ccc2C1.Cl (stereo not shown), CN(C)CC1CCc2ccc(OCc3ccc4ccccc4c3)cc2C1.Cl (stereo not shown) is lower in melting point: 228 to 229 °C for the first, 201 to 202 °C for the second.

First: CN(C)CC1CCc2cc(OCc3ccc(-c4ccc(C=O)cc4)cc3)ccc2C1.Cl (stereo not shown)
Second: CSc1ccc(-c2ccc(COc3ccc4c(c3)CCC(CN(C)C)C4)cc2)cc1.Cl (stereo not shown)
The melting point of the first is lower: 234 to 235 °C for the first, 235 to 237 °C for the second.

First: CN(C)CC1CCc2cc(OCc3ccc(-c4cccc([N+](=O)[O-])c4)cc3)ccc2C1.Cl (stereo not shown)
Second: COc1cccc(-c2ccc(COc3ccc4c(c3)CCC(CN(C)C)C4)cc2)c1.Cl (stereo not shown)
The melting point of the first is higher: 223 to 234 °C for the first, 207 to 208 °C for the second.

First: COc1ccccc1-c1ccc(COc2ccc3c(c2)CCC(CN(C)C)C3)cc1.Cl (stereo not shown)
Second: CN(C)CC1CCc2cc(OCc3ccc(-c4ccccc4C#N)cc3)ccc2C1.Cl (stereo not shown)
The melting point of the first is lower: 140 to 141 °C for the first, 202 to 203 °C for the second.

Compared with CN(C)CC1CCc2cc(OCc3ccc(-c4cc(C(F)(F)F)cc(C(F)(F)F)c4)cc3)ccc2C1.Cl (stereo not shown), CN(C)CC1CCc2cc(OCc3ccc(-c4ccsc4)cc3)ccc2C1.Cl (stereo not shown) is higher in melting point: 196 to 197 °C for the first, 222 to 223 °C for the second.

First: CN(C)CC1CCc2cc(OCc3ccc(-c4cccs4)cc3)ccc2C1.Cl (stereo not shown)
Second: CN(C)CC1CCc2cc(OCc3ccc(-c4cccnc4)cc3)ccc2C1 (stereo not shown) (as salt: hydrochloride)
The melting point of the first is higher: 227 to 228 °C for the first, 212 to 213 °C for the second.

Compared with CN(C)CC1CCc2cc(OCc3cccc(-c4ccccc4)c3)ccc2C1.Cl (stereo not shown), CN(C)CC1CCc2cc(OCc3cccc(-c4ccc(F)cc4)c3)ccc2C1.Cl (stereo not shown) is lower in melting point: 186 to 190 °C for the first, 171 to 172 °C for the second.

First: COc1ccc(-c2cccc(COc3ccc4c(c3)CCC(CN(C)C)C4)c2)cc1.Cl (stereo not shown)
Second: COc1ccc(-c2ccccc2COc2ccc3c(c2)CCC(CN(C)C)C3)cc1.Cl (stereo not shown)
The melting point of the first is higher: 182 to 183 °C for the first, 170 to 171 °C for the second.

CN(C)CC1CCc2cc(OCc3ccccc3-c3ccccc3)ccc2C1.Cl (stereo not shown) and CN(C)CC1CCc2cc(OCc3ccccc3-c3ccc(F)cc3)ccc2C1.Cl (stereo not shown) cannot be ordered by melting point: 173 to 174 °C for the first, 172 to 174 °C for the second.

First: Cl.c1ccc(-c2ccc(COc3ccc4c(c3)CCC(CCN3CCCC3)C4)cc2)cc1 (stereo not shown)
Second: Cl.OC1(O)CCN(CCC2CCc3cc(OCc4ccc(-c5ccccc5)cc4)ccc3C2)CC1 (stereo not shown)
The melting point of the first is higher: 197 to 199 °C for the first, 155 to 156 °C for the second.

Compared with CN(C)CCCCC1CCc2cc(OCc3ccc(-c4ccccc4)cc3)ccc2C1.Cl (stereo not shown), CNCC1CCc2cc(OCc3ccc(-c4ccccc4)cc3)ccc2C1.Cl (stereo not shown) is higher in melting point: 175 to 177 °C for the first, 189 to 190 °C for the second.

First: CCCN(CCC)CC1CCc2cc(OCc3ccc(-c4ccccc4)cc3)ccc2C1.Cl (stereo not shown)
Second: COc1ccc(-c2ccc(COc3ccc4c(c3)CCC(CCN(C)C)C4)cc2)cc1.Cl (stereo not shown) [44]
The melting point of the first is lower: 164 to 166 °C for the first, 182 to 185 °C for the second.

For c1ccc(-c2ccc(COc3ccc4c(c3)CCC(CCN3CCC(N5CCCCC5)CC3)C4)cc2)cc1 (stereo not shown) (as salt: hydrochloride), the melting point was 288 to 291 °C.

For Cl.c1ccc(C2CCN(CCC3CCc4cc(OCc5ccc6ccccc6c5)ccc4C3)CC2)cc1 (stereo not shown), the melting point was 229 to 234 °C (dec.).
For Cl.c1ccc2cc(COc3ccc4c(c3)CCC(CN3CCCCC3)C4)ccc2c1 (stereo not shown), the melting point was 215 to 218 °C (dec.).
